The source made the active and inactive calls. The rule behind the calls is not given here.
Experiments:
Hepatitis C virus [1] = assay: Antiviral activity against HCV1a infected in human HuH7 cells expressing E2 glycoprotein assessed as inhibition of viral RNA replication after 5 days; assay type: functional, organism-based, Hepacivirus hominis; settings: subtype 1a, Huh-7, 120 h
[2] = Cytotoxicity against human HuH7 cells expressing E2 glycoprotein assessed as reduction of rRNA level after 5 days; assay type: cell-based, Huh-7
[3] = Selectivity index, ratio of CC50 for human HuH7 cells to EC50 for HCV 1a; design: species or system Huh-7
Hepatitis C virus [4] = assay: Antiviral activity against HCV1b infected in human Huh7 cells expressing E2 glycoprotein assessed as inhibition of viral RNA replication after 5 days; assay type: functional, organism-based, Hepacivirus hominis; settings: genotype 1b, Huh-7, 120 h
Vaccinia virus = assay: Antiviral activity against Vaccinia virus infected in human HuH7 cells assessed as reduction of virus-induced cytopathic-effect; assay type: functional, organism-based; settings: Orthopoxvirus vaccinia, Huh-7
Measles morbillivirus [5] = assay: Antiviral activity against Measles virus infected in human HuH7 cells assessed as reduction of viral level by neutral red assay; assay type: functional, organism-based; settings: Huh-7
unidentified adenovirus [6] = assay: Antiviral activity against Adenovirus infected in human HuH7 cells assessed as reduction of viral level by neutral red assay; assay type: functional, organism-based; settings: Huh-7
unidentified adenovirus [7] = assay: Antiviral activity against Adenovirus infected in human HuH7 cells assessed as reduction of viral level by visual assay; assay type: functional, organism-based; settings: Huh-7
[8] = Selectivity index, ratio of CC50 for human HuH7 cells to EC50 for Vaccinia virus; assay type: toxicity, cell-based, Huh-7; settings: read-out: Ratio CC50/EC50
[9] = Selectivity index, ratio of CC50 for human HuH7 cells to EC50 for Measles virus by neutral red assay; assay type: toxicity, cell-based, Huh-7; settings: read-out: Ratio CC50/EC50
[10] = Selectivity index, ratio of CC50 for human HuH7 cells to EC50 for Measles virus by visual assay; assay type: toxicity, cell-based, Huh-7; settings: read-out: Ratio CC50/EC50
[11] = Selectivity index, ratio of CC50 for human HuH7 cells to EC50 for Adenovirus by neutral red assay; assay type: toxicity, cell-based, Huh-7; settings: read-out: Ratio CC50/EC50
[12] = Selectivity index, ratio of CC50 for human HuH7 cells to EC50 for Adenovirus by visual assay; assay type: toxicity, cell-based, Huh-7; settings: read-out: Ratio CC50/EC50
[13] = Cytotoxicity against human HuH7 cells; assay type: cell-based, Huh-7
Cowpox virus = assay: Antiviral activity against Cowpox virus; assay type: functional, organism-based
Hepatitis B virus = assay: Antiviral activity against Hepatitis B virus; assay type: functional, organism-based
Human alphaherpesvirus 1 = assay: Antiviral activity against HSV1; assay type: functional, organism-based
Human alphaherpesvirus 2 = assay: Antiviral activity against HSV2; assay type: functional, organism-based
Human alphaherpesvirus 3 = assay: Antiviral activity against Varicella zoster virus; assay type: functional, organism-based
SARS-CoV = assay: Antiviral activity against SARS coronavirus; assay type: functional, organism-based; settings: Severe acute respiratory syndrome-related coronavirus
Influenza A virus [14] = assay: Antiviral activity against Influenza A virus H1N1; assay type: functional, organism-based
Influenza A virus [15] = assay: Antiviral activity against Influenza A virus H3N2; assay type: functional, organism-based
Influenza A virus [16] = assay: Antiviral activity against Influenza A virus H5N1; assay type: functional, organism-based
[17] = tested on: Venezuelan equine encephalitis virus; assay: Antiviral activity against Venezuelan equine encephalitis virus; assay type: functional, organism-based
West Nile virus = assay: Antiviral activity against West Nile virus; assay type: functional, organism-based
Enterovirus = assay: Antiviral activity against Rhinovirus; assay type: functional, organism-based
Yellow fever virus = assay: Antiviral activity against Yellow fever virus; assay type: functional, organism-based
Human respirovirus 3 = assay: Antiviral activity against Human parainfluenza virus 3; assay type: functional, organism-based
[18] = Selectivity index, ratio of CC50 for human HuH7 cells to EC50 for HCV 1b; design: species or system Huh-7
Measles morbillivirus [19] = assay: Antiviral activity against Measles virus infected in human HuH7 cells assessed as reduction of viral level by visual assay; assay type: functional, organism-based; settings: Huh-7

## C[C@@]1(O)[C@H](O)[C@@H](CO)O[C@H]1n1ccc(N)nc1=O
Hepatitis C virus [1]
  EC50: 1.7 µM
  EC90: 8.2 µM
[2]
  CC50 at 120 h: > 300 µM
[3]
  Ratio CC50/EC50: >272

## Nc1ncnc2c1ncn2[C@H]1[C@H](O)[C@H](O)[C@@H](CO)C12CC2
Hepatitis C virus [1]
  EC50: 0.273 µM
  EC90: 3 µM
Hepatitis C virus [4]
  EC50: 0.368 µM
  EC90: 1.2 µM
[2]
  CC50 at 120 h: > 100 µM
[3]
  Ratio CC50/EC50: >366
Vaccinia virus
  EC50: 42.7 µM
Measles morbillivirus [5]
  EC50: 9 µM
Unidentified adenovirus [6]
  EC50: 3 µM
Unidentified adenovirus [7]
  EC50: 3 µM
[8]
  selectivity ratio: > 7.1
[9]
  selectivity ratio: 5
[10]
  selectivity ratio: 2
[11]
  selectivity ratio: 4
[12]
  selectivity ratio: 3
[13]
  CC50: > 10 µM
Cowpox virus
  Activity: inactive
Hepatitis B virus
  Activity: inactive
Human alphaherpesvirus 1
  Activity: inactive
Human alphaherpesvirus 2
  Activity: inactive
Human alphaherpesvirus 3
  Activity: inactive
SARS-CoV
  Activity: inactive
Influenza A virus [14]
  Activity: inactive
Influenza A virus [15]
  Activity: inactive
Influenza A virus [16]
  Activity: inactive
[17]
  Activity: inactive
West Nile virus
  Activity: inactive
Enterovirus
  Activity: inactive
Yellow fever virus
  Activity: inactive
Human respirovirus 3
  Activity: inactive
[18]
  Ratio CC50/EC50: >272
Measles morbillivirus [19]
  EC50: 7 µM

From ChEMBL document CHEMBL1795274, “Synthesis and antiviral activity of cyclopropyl-spirocarbocyclic adenosine, (4R,5S,6R,7R)-4-(6-amino-9H-purin-9-yl)-7-(hydroxymethyl)spiro[2.4]heptane-5,6-diol against hepatitis C virus” (Bioorg Med Chem Lett, 2011)
